From patent publication US20210220356A1, “DIHYDROPYRIMIDINE DERIVATIVES AND USES THEREOF IN THE TREATMENT OF HBV INFECTION OR OF HBV-INDUCED DISEASES” (Janssen Sciences Ireland Unlimited Company, priority 2018, published 2021)
Read-outs that look alike come from different tables or passages of the source.

Key:
Type in all cases: cell-based
[1] = tested on: HBV; assay: HBV inhibitory activity in HepG2.2.15 cells (HBV DNA in culture medium by q-PCR); conditions: HepG2.2.15 cells, 40,000 cells/well, 6 days of compound treatment, HBV DNA in culture medium by q-PCR, highest concentration 10 uM, read-out: EC50
Experimental: (§1) • HepG2.2.15 (the HepG2.2.15 cell line can be produced by transfection of the HepG2 cell line as described in Sells, Chen, and Acs 1987 (Proc. Natl. Acad. Sci. USA 84: 1005-1009), and the HepG2 cell line is available from ATCC® under number HB-8065™)
(§2) Seed the cell HepG2.2.15 cells into 96-well plate in 2% FBS culture medium at the density of 40,000 cells/well and 5,000 cells/well for HBV inhibitory activity and cytotoxicity determination, respectively. After seeding, incubate the cell plates at 37° C., 5% CO2 overnight. The next day, medium containing compounds is added to the cell to treat the cells for 6 days with medium refreshed once in the middle of the treatment. 8 dose points with 3 folds dilution of each compound were adopted and the highest concentration of the compounds is 10 uM and 100 uM for HBV inhibitory activity and cytotoxicity determination, respectively.
The HBV DAN change in the cell culture medium induced by the compounds is measured by q-PCR method. Briefly, the HBV DNA in the culture medium is extracted using QIAamp 96 DNA Blood Kit according to the manual and then quantified by q-PCR using the primers and probe in the table below.
(§3) EC50 and CC50 values are calculated by the GRAPHPAD PRISM software.

[2] = Cytotoxicity determination in HepG2.2.15 cells (CCK-8); conditions: human, HepG2.2.15 cells, HepG2.2.15 cells, 5,000 cells/well, 6 days of compound treatment, CCK-8 absorbance 450 nm, highest concentration 100 uM
Experimental: as §1, §2
(§4) After 6 days of compounds treatment, add 20 μl CCK-8 reagents to each well of cytotoxicity assay plates, incubate the plate at 37° C., 5% CO2 for 2.5 h and measure the absorbance at 450 nm wavelength, at the same time read the absorbance at 630 nm wavelength as reference.
as §3

[3] = tested on: HepG2.2.15 cells; assay: as above; conditions: HepG2.2.15 cells, 5,000 cells/well, 6 days of compound treatment, CCK-8 absorbance 450 nm, highest concentration 100 uM
Experimental: as §1, §2, §4, §3

[4] = Hepatitis B virus, HepG2.2.15, 144 h

Compound | EC50 [1] | CC50 at 6 days [2] | EC50 [1, 4] | CC50 [3]
CCOC(=O)C1=C(C2CCc3nn(CCC(=O)O)cc3C2)NC(c2nccs2)=NC1c1ccc(F)c(F)c1Cl (single isomer, unassigned) [Compound 34a, 3-(5-(6-(2-chloro-3,4-difluorophenyl)-5-(ethoxycarbonyl)-2-(thiazol-2-yl)-3,6-dihydropyrimidin-4-yl)-4,5,6,7-tetrahydro-2H-indazol-2-yl)propanoic acid] | 385 nM | 27500 nM |  | 
CCOC(=O)C1=C(C2CCc3nn(CCC(=O)O)cc3C2)NC(c2nccs2)=NC1c1ccc(F)c(F)c1C (single isomer, unassigned) [Compound 35b, 3-(5-(6-(3,4-Difluoro-2-methylphenyl)-5-(ethoxycarbonyl)-2-(thiazol-2-yl)-3,6-dihydropyrimidin-4-yl)-4,5,6,7-tetrahydro-2H-indazol-2-yl)propanoic acid] | 95.8 nM | 20700 nM |  | 
CCOC(=O)C1=C(C2CCc3nn(CCC(=O)O)cc3C2)NC(c2nccs2)=NC1c1ccc(F)c(F)c1Br (single isomer, unassigned) [Compound 36d, 3-(5-(6-(2-Bromo-3,4-difluorophenyl)-5-(ethoxycarbonyl)-2-(thiazol-2-yl)-3,6-dihydropyrimidin-4-yl)-4,5,6,7-tetrahydro-2H-indazol-2-yl)propanoic acid] |  | 9700 nM | 87.9 nM | 
CCOC(=O)C1=C(C2CCc3nn(CCC(=O)O)cc3C2)NC(c2nccs2)=NC1c1ccc(F)cc1Cl (single isomer, unassigned) [Compound 37b, 3-(5-(6-(2-Chloro-4-fluorophenyl)-5-(ethoxycarbonyl)-2-(thiazol-2-yl)-3,6-dihydropyrimidin-4-yl)-4,5,6,7-tetrahydro-2H-indazol-2-yl)propanoic acid] | 175 nM | 19600 nM |  | 
CCOC(=O)C1=C(C2CCc3nn(CCC(=O)O)cc3C2)NC(c2nccs2)=NC1c1ccc(F)cc1C (single isomer, unassigned) [Compound 38a, 3-(5-(5-(Ethoxycarbonyl)-6-(4-fluoro-2-methylphenyl)-2-(thiazol-2-yl)-3,6-dihydropyrimidin-4-yl)-4,5,6,7-tetrahydro-2H-indazol-2-yl)propanoic acid] | 14.5 nM | 28200 nM |  | 
CCOC(=O)C1=C(C2CCc3nn(CCC(=O)O)cc3C2)NC(c2nccs2)=NC1c1ccc(F)cc1Br (single isomer, unassigned) [Compound 39b, 3-(5-(6-(2-Bromo-4-fluorophenyl)-5-(ethoxycarbonyl)-2-(thiazol-2-yl)-3,6-dihydropyrimidin-4-yl)-4,5,6,7-tetrahydro-2H-indazol-2-yl)propanoic acid] | 165 nM | 13100 nM |  | 
CCOC(=O)C1=C(C2CCc3nn(CCC(=O)O)cc3C2)NC(c2nccs2)=NC1c1cccc(F)c1Cl (single isomer, unassigned) [Compound 40b, 3-(5-(6-(2-Chloro-3-fluorophenyl)-5-(ethoxycarbonyl)-2-(thiazol-2-yl)-3,6-dihydropyrimidin-4-yl)-4,5,6,7-tetrahydro-2H-indazol-2-yl)propanoic acid] | 480 nM | 21500 nM |  | 
CCOC(=O)C1=C(C2CCc3nn(CCC(=O)O)cc3C2)NC(c2nccs2)=NC1c1cccc(F)c1Br (single isomer, unassigned) [Compound 42b, 3-(5-(6-(2-bromo-3-fluorophenyl)-5-(ethoxycarbonyl)-2-(thiazol-2-yl)-3,6-dihydropyrimidin-4-yl)-4,5,6,7-tetrahydro-2H-indazol-2-yl)propanoic acid] | 131 nM | 10200 nM |  | 
CCOC(=O)C1=C(C2CCc3nn(CCC(=O)O)cc3C2)NC(c2ncc(F)cc2F)=NC1c1ccc(F)c(F)c1Cl (single isomer, unassigned) [Compound 43b, 3-(5-(6-(2-Chloro-3,4-difluorophenyl)-2-(3,5-difluoropyridin-2-yl)-5-(ethoxycarbonyl)-3,6-dihydropyrimidin-4-yl)-4,5,6,7-tetrahydro-2H-indazol-2-yl)propanoic acid] | 125 nM | 31300 nM |  | 
COC(=O)C1=C(C2CCc3nn(CCC(=O)O)cc3C2)NC(c2nccs2)=NC1c1cccc(F)c1Cl (single isomer, unassigned) [Compound 44b, 3-(5-(6-(2-Chloro-3-fluorophenyl)-5-(methoxycarbonyl)-2-(thiazol-2-yl)-3,6-dihydropyrimidin-4-yl)-4,5,6,7-tetrahydro-2H-indazol-2-yl)propanoic acid] | 383 nM | 21000 nM |  | 
COC(=O)C1=C(C2CCc3nn(CCC(=O)O)cc3C2)NC(c2nccs2)=NC1c1cccc(F)c1Br (single isomer, unassigned) [Compound 45b, 3-(5-(6-(2-Bromo-3-fluorophenyl)-5-(methoxycarbonyl)-2-(thiazol-2-yl)-3,6-dihydropyrimidin-4-yl)-4,5,6,7-tetrahydro-2H-indazol-2-yl)propanoic acid] | 213 nM | 18200 nM |  | 
COC(=O)C1=C(C2CCc3nn(CCC(=O)O)cc3C2)NC(c2nccs2)=NC1c1ccc(F)c(F)c1Br (single isomer, unassigned) [Compound 46a, 3-(5-(6-(2-Bromo-3,4-difluorophenyl)-5-(methoxycarbonyl)-2-(thiazol-2-yl)-3,6-dihydropyrimidin-4-yl)-4,5,6,7-tetrahydro-2H-indazol-2-yl)propanoic acid] | 219 nM | 17300 nM |  | 
CCOC(=O)C1=C(C2CCc3nn(CCCC(=O)O)cc3C2)NC(c2nccs2)=NC1c1ccc(F)c(F)c1Cl (single isomer, unassigned) [Compound 50b, 4-(5-(6-(2-Chloro-3,4-difluorophenyl)-5-(ethoxycarbonyl)-2-(thiazol-2-yl)-3,6-dihydropyrimidin-4-yl)-4,5,6,7-tetrahydro-2H-indazol-2-yl)butanoic acid] | 116 nM | 12600 nM |  | 
CCOC(=O)C1=C(C2CCc3nn(C(C)CC(=O)O)cc3C2)NC(c2nccs2)=NC1c1ccc(F)c(F)c1Cl (single isomer, unassigned) [Compound 51b, 3-(5-(6-(2-chloro-3,4-difluorophenyl)-5-(ethoxycarbonyl)-2-(thiazol-2-yl)-3,6-dihydropyrimidin-4-yl)-4,5,6,7-tetrahydro-2H-indazol-2-yl)butanoic acid] | 11.7 nM | 7700 nM |  | 
COC(=O)C1=C(C2CCc3nn(CCCC(=O)O)cc3C2)NC(c2nccs2)=NC1c1ccc(F)c(F)c1Cl (single isomer, unassigned) [Compound 74c, 4-(5-(6-(2-chloro-3,4-difluorophenyl)-5-(methoxycarbonyl)-2-(thiazol-2-yl)-3,6-dihydropyrimidin-4-yl)-4,5,6,7-tetrahydro-2H-indazol-2-yl)butanoic acid] | 9.1 nM |  |  | 18200 nM
COC(=O)C1=C(C2CCc3nn(C(C)(C)CC(=O)O)cc3C2)NC(c2nccs2)=NC1c1ccc(F)c(F)c1Cl (single isomer, unassigned) [Compound 82c, 3-(5-(-6-(2-chloro-3,4-difluorophenyl)-5-(methoxycarbonyl)-2-(thiazol-2-yl)-3,6-dihydropyrimidin-4-yl)-4,5,6,7-tetrahydro-2H-indazol-2-yl)-3-methylbutanoic acid] | 6.5 nM |  |  | 15100 nM
COC(=O)C1=C(C2CCc3nc([C@H]4CC[C@H](C(=O)O)CC4)oc3C2)NC(c2nccs2)=NC1c1ccc(F)c(F)c1Cl (single isomer, unassigned) [Compound 86b, (trans)-4-(6-(6-(2-chloro-3,4-difluorophenyl)-5-(methoxycarbonyl)-2-(thiazol-2-yl)-3,6-dihydropyrimidin-4-yl)-4,5,6,7-tetrahydrobenzo[d]oxazol-2-yl)cyclohexanecarboxylic acid] |  |  | 64 nM | 8700 nM
COC(=O)C1=C(C2CCc3nc([C@H]4CC[C@H](C(=O)O)CC4)oc3C2)NC(c2nccs2)=NC1c1ccc(F)c(F)c1Cl (single isomer, unassigned) [Compound 86d, (trans)-4-(6-(6-(2-chloro-3,4-difluorophenyl)-5-(methoxycarbonyl)-2-(thiazol-2-yl)-3,6-dihydropyrimidin-4-yl)-4,5,6,7-tetrahydrobenzo[d]oxazol-2-yl)cyclohexanecarboxylic acid] | 61.4 nM |  |  | 4300 nM
CCOC(=O)C1=C(C2Cc3cn(CCC(=O)O)nc3C(C)(C)C2)NC(c2nccs2)=NC1c1ccc(F)c(F)c1Cl (centres unmarked) [Compound 55c, 3-(5-(6-(2-chloro-3,4-difluorophenyl)-5-(ethoxycarbonyl)-2-(thiazol-2-yl)-3,6-dihydropyrimidin-4-yl)-7,7-dimethyl-4,5,6,7-tetrahydro-2H-indazol-2-yl)propanoic acid] | 9.5 nM |  |  | 7100 nM
